Broadly, the IC50 is the point on the concentration scale where inhibition reaches its midpoint.

Experimental findings from patent publication US11667630B2, “Nitrogen-containing 6-membered cyclic compound” (Asahi Kasei Pharma Corporation, priority 2017, dated 2023) are described below.

In one test the target is T1, human EP3 receptor (Homo sapiens, UniProt P43115).
T1 construct: purchased Merck Millipore HTS092M
T1 sequence (P43115 1-390): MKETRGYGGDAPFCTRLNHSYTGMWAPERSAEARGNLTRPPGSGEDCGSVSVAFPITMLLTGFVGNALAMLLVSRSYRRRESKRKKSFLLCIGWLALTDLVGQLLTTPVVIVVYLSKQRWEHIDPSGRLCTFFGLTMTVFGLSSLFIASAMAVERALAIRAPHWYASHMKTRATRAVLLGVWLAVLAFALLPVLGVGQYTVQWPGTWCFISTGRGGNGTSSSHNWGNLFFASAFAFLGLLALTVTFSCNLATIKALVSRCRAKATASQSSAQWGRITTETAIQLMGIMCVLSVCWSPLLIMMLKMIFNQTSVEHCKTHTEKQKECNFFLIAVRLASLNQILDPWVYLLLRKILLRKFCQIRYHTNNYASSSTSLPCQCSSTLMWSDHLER
Put plainly: Receptor binding test, [3H]PGE2 binding inhibition, EP3. To be noted: [3H]PGE2 1.54 nmol/L, membrane fraction HTS092M, 25°C 60 minutes. How it is done:
In order to evaluate selectivity to each EP receptor subtype, [^3H]PGE2 binding-inhibition activities of test compounds for cell membranes on which human EP2, human EP3, and human EP4 receptors were stably expressed were measured.
As the membrane fractions of the prostaglandin E receptors EP2, EP3, and EP4, 10.0 μg protein/tube each of HTS185M, HTS092M, and HTS142M of Merck Millipore were used, respectively. Each membrane fraction was incubated with a reaction mixture (250 μL/tube) containing a test compound and [3H]PGE2 at 25° C. for 60 minutes. […] After the reaction, the membrane fraction was collected on filter paper by using a cell harvester, the filter paper was transferred to a measurement vial, and the measurement was performed on a liquid scintillation counter.
The nonspecific binding was determined as binding observed in the presence of excess amount (10 μM) of unlabeled PGE2. The measurement of the [3H]PGE2 binding-inhibiting activity of a test compound was performed by adding the test compound at various concentrations. The following buffers were used for the reaction.
Buffer for EP3: 50 mmol/L Tris-HCl buffer containing 10 mmol/L MgCl2, and 1 mmol/L EDTA

In the next test the test system is rat femur. Kind of test: Neo-osteogenesis action in rat femur. The format is in vivo. To be noted: female SD rats, one week after administration. How it is done: Eight weeks old female SD rats (Charles River Japan) were fixed in the side lying position under triple anesthesia (medetomidine hydrochloride, midazolam, and butorphanol tartrate). After hair of the left femoral region was shaved with a hair clipper, and disinfection treatment was performed with 70% ethanol, an in situ-solidified gel solution of a test compound, specifically, a test compound dissolved in poly(lactic-co-glycolic acid) (RESOMER RG502H, produced by Evonik Industries)/poly(lactic-co-glycolic acid)-polyethylene glycol block copolymer (5050 DLG mPEG 5000, produced by Lakeshore Biomaterials)/N-methyl-2-pyrroridone (produced by Wako) (weight ratio 47%/3%/50%), was filled in a 1-mL syringe, a 21G injection needle was attached to the syringe, and the needle was transdermally stabbed from the quadriceps to the periosteum near the center of the femoral diaphyseal. Then, 100 μg as the amount of the test compound, or 50 μL as the administration volume of the solution was injected between the quadriceps and the periosteum, and the injection needle was drawn out. To the rats of the control group, the aforementioned in situ-solidified gel solution alone was administered. One week after the administration of the drug solution, the triple anesthesia was given to the animals, and they were fixed in the supine position, and euthanized by bleeding. […], circumferential tissues such as muscles were removed, the bone mineral content of the whole femur was measured by using a bone mineral analyzer DCS-600EX (produced by ALOKA), then it was divided into three portions along the long axis, and the bone mineral content of the center part (diaphysis) was evaluated. The test was performed with the groups each consisting of 6 animals.

Test [1] has as its system dog lumbar vertebrae posterolateral fixation model. Put plainly: Bone union-promoting action in dog lumbar vertebrae posterolateral fixation model. Format: in vivo. The conditions noted are these: twelve weeks after operation; for Continuity score based on soft X-ray image (Mean ± SD): grades 0 to 3 per Table 9; for Manual evaluation of bone union: beagle dogs, microspheres containing compound of Example 23 mixed with autologous bone graft, animals with union/5. How it is done:
In order to investigate a bone union-promoting action in the spinal fusion of the compounds of the present invention, influence of mixing of microspheres containing a test compound at the time of autologous bone grafting was confirmed by using a lumbar vertebrae posterolateral fixation model.
Twelve to thirteen months old male beagle dogs ([…] LABES) were anesthetized by administration of a 1:1 mixture of ketamine hydrochloride (Ketalar 500 mg, Daiichi Sankyo Propharma Co., Ltd.) and xylazine (Selactar 2% Injection, Bayer Yakuhin, Ltd.) at a dose of about 0.5 mL/kg, and Japanese Pharmacopoeia-listed isoflurane (Elucaine, produced by Mylan Pharmaceutical) was inhaled with an inhaler IMPAC6 (VetEquip Inc.) to maintain the anesthesia. The animal was fixed in the prone position, hair of a wide area over the right and left spina iliaca posterior superiors, part around iliac crest, and lower back was shaved, and disinfection treatment was performed with povidone-iodine listed in Japanese Pharmacopoeia (Isodine solution for animals, 20 mg of povidone-iodine listed in Japanese Pharmacopoeia in 1 mL, Meiji Seika Pharma) and ethanol for disinfection (Wako Pure Chemical Industries). […] About 2 g each of the right and left iliums were extracted by using a rongeur and bone scissors, and astriction was performed. The collected ilium, from which the soft tissues were removed, was finely broken with bone scissors, and thereby made into chips of 1 mm size to obtain 2 g each of bone grafts for right and left. Then, the skin was dissected along the spinous processes of lower back with a scalpel, the left and right lumbodorsal fascias were dissected, and then the transverse processes of the fourth and fifth lumbar vertebrae were exposed while the multifidus muscle and longissimus muscle were separated and dissected between the fascias thereof. The soft tissues adhering to the transverse processes were removed, and then decortication of the cortical bone on the surface of the transverse processes was performed with an electric drill (OS-40MV2, Osada Electric Co., Ltd.) to prepare a bone graft bed. The bone graft (2 g) prepared above was sufficiently mixed with a microsphere suspension obtained by suspending microspheres containing a test compound (compound of Example 23) in an amount corresponding to 10, 30, or 100 μg of the test compound (prepared according to the method of Preparation Example 1) in 800 μL of a CMC solution, embedded and grafted on the transverse processes of the fourth and fifth lumbar vertebrae, and the bone graft bed between the transverse processes. After the autologous bone grafting, the lumbodorsal fascia, subcutaneous tissues, and skin were sutured, and the surgical site was disinfected. Twelve weeks after the operation, the animals were euthanized with overdose (30 mg/kg) of sodium pentobarbiturate (Somnopentyl, Kyoritsuseiyaku Corporation), and then the lumbar vertebrae were extracted. Bone union was judged by manually confirming movability of the fourth and fifth lumbar vertebrae (manual palpation) under blinding, and soft X-ray images were obtained from one direction by using Softex M-60 (Softex). The test was performed with the groups each consisting of 5 animals.

At human EP3 receptor, `O=C(O)c1ccc(CCN2C(=O)SCCN2CC[C@@H](O)Cc2cccc(C#Cc3ccsc3)c2)s1` [Example 23, (S)-5-(2-(4-(3-Hydroxy-4-(3-(thiophen-3-ylethynyl)phenyl)butyl)-2-oxo-1,3,4-thiadiazinan-3-yl)ethyl)thiophene-2-carboxylic acid] displayed an IC50 of more than 1000 nM. Further, in the test with rat femur (100 μg test compound in in situ-solidified gel solution injected between quadriceps and periosteum), the “Bone mineral content of femur 1/3 center region (mg) Left femur (administered with compound)” value is reported as 82.7 ± 6.7 mg. Moreover, in the test on rat femur (contralateral femur, 100 μg test compound given at left femur), the “Bone mineral content of femur 1/3 center region (mg) Right femur (no administration of compound)” value was 58.9 ± 2.9 mg. The results for the “Continuity score based on soft X-ray image (Mean ± SD)” value in test [1] (10 μg/site), in test [1] (30 μg/site) and in test [1] (100 μg/site) were 2.4 ± 0.5, 2.6 ± 0.5 and 2.8 ± 0.4, respectively. Besides, the “Manual evaluation of bone union” value in test [1] (10 μg/site), in test [1] (30 μg/site) and in test [1] (100 μg/site) was 4/5 in each case.
